Drawing on PubChem BioAssay AID200 (DTP/NCI, 2004), this text covers T/C for 17 compounds.

Where “and” joins values, the source holds several entries; their conditions need not be identical. Equal values may be shown once. Inconclusive results and toxic doses are left out.

The subject of this experiment is B6C3F1 mice, B16 melanoma ip, median survival T/C. Kind of experiment: NCI In Vivo Anticancer Drug Screen. Data for tumor model B16 Melanoma (intraperitoneal) in B6C3F1 mice. As to conditions: endpoint: median survival time, higher = longer survival. In a few lines:
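Readout: survival or tumor size in treated mice relative to vehicle controls (T/C). Model uses transplantable tumors grown in mice.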

[1] abbreviates: dose: 25.0 mg/kg/injection, schedule: Q01DX009 (ip), vehicle: Klucel (hydroxypropylcellulose) (HPC).
Where [2] appears, read: dose: 50.0 mg/kg/injection, schedule: Q01DX009 (ip), vehicle: Klucel (hydroxypropylcellulose) (HPC).
The mark [3] stands for this setting: dose: 200.0 mg/kg/injection, schedule: Q01DX009 (ip), vehicle: Klucel (hydroxypropylcellulose) (HPC).
Setting [4] is: dose: 50.0 mg/kg/injection, schedule: Q01DX009 (ip), vehicle: saline with Tween-80.
Setting [5] is: dose: 100.0 mg/kg/injection, schedule: Q01DX009 (ip), vehicle: saline with Tween-80.
The mark [6] stands for this setting: dose: 100.0 mg/kg/injection, schedule: Q01DX009 (ip), vehicle: saline.
[7] abbreviates: dose: 100.0 mg/kg/injection, schedule: Q01DX009 (ip), vehicle: Klucel (hydroxypropylcellulose) (HPC).

Regarding `COC(=O)Nc1nc2ccc(SC)cc2c(=O)[nH]1`, the T/C is 96 % of control under setting [1], 101 % of control under setting [2] and 114 % of control under setting [3].

Take `O=C1NC(O)CCN1C1OC(CO)C(O)C1O` (stereo not drawn): the T/C was 104 % of control (dose: 25.0 mg/kg/injection, schedule: Q01DX008 (ip), vehicle: saline); 99 % of control (dose: 50.0 mg/kg/injection, schedule: Q01DX008 (ip), vehicle: saline); 104 % of control (dose: 100.0 mg/kg/injection, schedule: Q01DX008 (ip), vehicle: saline); 108 % of control (dose: 200.0 mg/kg/injection, schedule: Q01DX008 (ip), vehicle: saline); 108 % of control (dose: 400.0 mg/kg/injection, schedule: Q01DX008 (ip), vehicle: saline); 96 % of control (dose: 800.0 mg/kg/injection, schedule: Q01DX008 (ip), vehicle: saline).

For `c1nc(N2CC2)c2cnn(C3CCCCO3)c2n1` (stereo not drawn), the T/C by setting is: under setting [4], 91 % of control; under setting [5], 93 % of control; (dose: 200.0 mg/kg/injection, schedule: Q01DX009 (ip), vehicle: saline with Tween-80) 91 % of control.

For the compound `COC(OC(CO)C(O)S(=O)(=O)O)C(O)S(=O)(=O)O` (stereo not drawn), the T/C is, setting by setting: (dose: 12.5 mg/kg/injection, schedule: Q01DX009 (ip), vehicle: saline) 108 % of control; (dose: 25.0 mg/kg/injection, schedule: Q01DX009 (ip), vehicle: saline) 115 % of control; under setting [6], 155 % of control.

In the case of `Nc1nc(-c2ccccc2)c(Br)c(=O)[nH]1`, the T/C was 156 % of control and 183 % of control under setting [4]; 116 % of control (dose: 800.0 mg/kg/injection, schedule: Q01DX009 (ip), vehicle: saline with Tween-80).

For `N#CC(=C1SCS1)[N+](=O)[O-]`, the T/C was 108 % of control (dose: 0.37 mg/kg/injection, schedule: Q01DX009 (ip), vehicle: saline with Tween-80); 100 % of control (dose: 0.75 mg/kg/injection, schedule: Q01DX009 (ip), vehicle: saline with Tween-80); 105 % of control (dose: 1.5 mg/kg/injection, schedule: Q01DX009 (ip), vehicle: saline with Tween-80); 119 % of control (dose: 3.0 mg/kg/injection, schedule: Q01DX009 (ip), vehicle: saline with Tween-80); 118 % of control (dose: 6.0 mg/kg/injection, schedule: Q01DX009 (ip), vehicle: saline with Tween-80); 107 % of control (dose: 12.0 mg/kg/injection, schedule: Q01DX009 (ip), vehicle: saline with Tween-80). Also, the T/C (dose: 375.0 micrograms/kg/injection, schedule: Q01DX009 (ip), vehicle: saline with Tween-80) was 107 % of control; the T/C (dose: 750.0 micrograms/kg/injection, schedule: Q01DX009 (ip), vehicle: saline with Tween-80) is 104 % of control; the T/C (dose: 1500.0 micrograms/kg/injection, schedule: Q01DX009 (ip), vehicle: saline with Tween-80) is 113 % of control; the T/C (dose: 3000.0 micrograms/kg/injection, schedule: Q01DX009 (ip), vehicle: saline with Tween-80) was 108 % of control; the T/C (dose: 6000.0 micrograms/kg/injection, schedule: Q01DX009 (ip), vehicle: saline with Tween-80) was 101 % of control.

Turning to `NC(CCCCNC=O)C(=O)O` (stereo not drawn), the T/C reads like this: under setting [6], 110 % of control; (dose: 200.0 mg/kg/injection, schedule: Q01DX009 (ip), vehicle: saline) 121 % of control; (dose: 400.0 mg/kg/injection, schedule: Q01DX009 (ip), vehicle: saline) 116 % of control.

With `N#CN=[N+]([O-])c1ccc(C(=O)O)cc1`, the T/C by setting is: (dose: 1.87 mg/kg/injection, schedule: Q01DX009 (ip), vehicle: Klucel (hydroxypropylcellulose) (HPC)) 99 % of control and 101 % of control; (dose: 3.75 mg/kg/injection, schedule: Q01DX009 (ip), vehicle: Klucel (hydroxypropylcellulose) (HPC)) 96 % of control and 105 % of control; (dose: 7.5 mg/kg/injection, schedule: Q01DX009 (ip), vehicle: Klucel (hydroxypropylcellulose) (HPC)) 95 % of control and 102 % of control; (dose: 15.0 mg/kg/injection, schedule: Q01DX009 (ip), vehicle: Klucel (hydroxypropylcellulose) (HPC)) 89 % of control and 91 % of control; (dose: 30.0 mg/kg/injection, schedule: Q01DX009 (ip), vehicle: Klucel (hydroxypropylcellulose) (HPC)) 90 % of control and 97 % of control.

Turning to `Cc1cc(N/N=C/c2ccccn2)nc2ccccc12`, the T/C is 96 % of control (dose: 6.25 mg/kg/injection, schedule: Q01DX009 (ip), vehicle: Klucel (hydroxypropylcellulose) (HPC)); 94 % of control and 99 % of control (dose: 12.5 mg/kg/injection, schedule: Q01DX009 (ip), vehicle: Klucel (hydroxypropylcellulose) (HPC)); 97 % of control and 98 % of control under setting [1]; 93 % of control and 101 % of control under setting [2]; 103 % of control and 106 % of control under setting [7].

Take `COc1ccc2c3c1OC1C(=O)CCC4C(C2)N(C)CCC314` (stereo not drawn): the T/C (dose: 31.0 mg/kg/injection, schedule: Q01DX009 (ip), vehicle: saline) is 99 % of control.

As to `COC(=O)Nc1ccc(Cc2ccc(NC(=O)OC)cc2)cc1`, the T/C runs as follows: (dose: 6.25 mg/kg/injection, schedule: Q01DX009 (ip), vehicle: saline with Tween-80) 98 % of control; (dose: 12.5 mg/kg/injection, schedule: Q01DX009 (ip), vehicle: saline with Tween-80) 99 % of control; (dose: 25.0 mg/kg/injection, schedule: Q01DX009 (ip), vehicle: saline with Tween-80) 109 % of control and 98 % of control; under setting [4], 109 % of control; under setting [5], 150 % of control.

Turning to `Nc1ccc(S(=O)(=O)Nc2cnc3c(Cl)cccc3n2)cc1`, the T/C reads like this: (dose: 50.0 mg/kg/injection, schedule: Q01DX009 (ip), vehicle: DMSO) 97 % of control; (dose: 100.0 mg/kg/injection, schedule: Q01DX009 (ip), vehicle: DMSO) 100 % of control; (dose: 200.0 mg/kg/injection, schedule: Q01DX009 (ip), vehicle: DMSO) 116 % of control; (dose: 400.0 mg/kg/injection, schedule: Q01DX009 (ip), vehicle: DMSO) 105 % of control.

`O=c1[nH]c(=O)n(C2CC(O)C(CO)O2)cc1I` (stereo not drawn): the T/C (dose: 400.0 mg/kg/injection, schedule: Q01DX009 (ip), vehicle: saline with Tween-80) is 111 % of control.

In the case of `c1ccc2c3c(c4c(c2c1)CN(C1CCCCC1)CO4)OCN(C1CCCCC1)C3`, the T/C was 92 % of control (dose: 3.12 mg/kg/injection, schedule: Q01DX009 (ip), vehicle: other) and 89 % of control (dose: 6.25 mg/kg/injection, schedule: Q01DX009 (ip), vehicle: other).

Regarding `NC(=O)CCC(NC(=O)OCc1ccccc1)C(=O)NCC(=O)O` (stereo not drawn), the T/C (dose: 12.0 mg/kg/injection, schedule: Q01DX009 (ip), vehicle: Klucel (hydroxypropylcellulose) (HPC)) is 110 % of control; the T/C under setting [1] was 98 % of control; the T/C under setting [2] is 118 % of control; the T/C under setting [7] was 95 % of control; the T/C under setting [3] is 98 % of control; the T/C (dose: 400.0 mg/kg/injection, schedule: Q01DX009 (ip), vehicle: Klucel (hydroxypropylcellulose) (HPC)) was 103 % of control.

Regarding `COc1cccc2c1C(=O)c1c(O)c3c(c(O)c1C2=O)CC(O)(C(=O)CO)CC3OC1CC(N)C(O)C(C)O1` (stereo not drawn), the T/C (dose: 4.1 mg/kg/injection, schedule: Q01DX001 (ip), vehicle: other) is 108 % of control; the T/C (dose: 4.5 mg/kg/injection, schedule: Q01DX009 (ip), vehicle: water) was 209 % of control; the T/C (dose: 6.9 mg/kg/injection, schedule: Q01DX001 (ip), vehicle: other) is 114 % of control; the T/C (dose: 9.0 mg/kg/injection, schedule: Q01DX009 (ip), vehicle: water) was 219 % of control; the T/C (dose: 11.5 mg/kg/injection, schedule: Q01DX001 (ip), vehicle: other) is 118 % of control; the T/C (dose: 18.0 mg/kg/injection, schedule: Q01DX009 (ip), vehicle: water) was 234 % of control. For the same compound, the T/C (dose: 19.2 mg/kg/injection, schedule: Q01DX001 (ip), vehicle: other) was 123 % of control and the T/C (dose: 36.0 mg/kg/injection, schedule: Q01DX009 (ip), vehicle: water) was 156 % of control.

`Cc1ccc(S(=O)(=O)OCCN(CCOS(=O)(=O)c2ccc(C)cc2)c2ccc(F)cc2)cc1`: the T/C reads like this: (dose: 3.12 mg/kg/injection, schedule: Q01DX009 (ip), vehicle: saline + alcohol) 109 % of control; (dose: 6.25 mg/kg/injection, schedule: Q01DX009 (ip), vehicle: saline + alcohol) 109 % of control; (dose: 12.5 mg/kg/injection, schedule: Q01DX009 (ip), vehicle: saline + alcohol) 108 % of control; (dose: 25.0 mg/kg/injection, schedule: Q01DX009 (ip), vehicle: saline + alcohol) 111 % of control; (dose: 50.0 mg/kg/injection, schedule: Q01DX009 (ip), vehicle: saline + alcohol) 108 % of control.
